In brackets after ≈: the same amount, converted by molar mass.
What was measured:
[1] = biological target: human α5β3γ2 receptor (α5-GABAA receptor) (Homo sapiens (Human), UniProt P18507+P31644); experiment: Radioligand (3H-flunitrazepam) competition binding assay, BZD site; details: 3H-flunitrazepam 1 nM; HEK293 membranes expressing human α5β3γ2
Method in brief: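 Membranes from HEK293 cells stably expressing human α2β3γ2 or α5β3γ2 (5 μg protein/well) incubated 1 h at room temperature with 1 nM ^3H-flunitrazepam and 8-point 4-fold compound dilutions; nonspecific binding defined with 10 μM flumazenil. Filter-bound radioactivity counted; Ki derived from fitted IC50.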

[2] = Thermodynamic solubility in simulated intestinal fluid (FaSSIF); format: physicochemical; details: 37° C., 1000 rpm
Description: 50 mM of phosphate buffer, pH=7.4:0.39 g of NaH2PO4·2H2O, 1.4025 g of Na2HPO4 were weighed, placed into an Erlenmeyer flask, dissolved with the addition of 240 ml of water, homogenously mixed, adjusted to pH 7.4 with 10 M NaOH solution, transferred into a 250 ml volumetric flask and diluted with water to the scale.
Simulated intestinal fluid FaSSIF: 54.76 mg of FaSSIF-V2 (Biorelevant, batch. V2FAS-0619-A, lot. V2FAS01) was weighed, and added to 15 ml of buffer, and after dissolution, the solution was made up to 30 ml and left to stand at room temperature for 1 hour for use.
Waters e2695 HPLC high performance liquid chromatography, Mettler XSE105 analytical balance.
Stock solution containing 10 mM of each test compound was formulated using DMSO, diluted into […] standard curve solution using diluent (ACN:PB buffer with a volume ratio of 50:50), and tested by HPLC to obtain a standard curve of concentration vs peak area of each test compound.
Thermodynamic solubility in simulated intestinal fluid (TS in FaSSIF). About 0.3 mg of each sample (test compound) was weighed, added into 1.5 mL of FaSSIF solution, two samples in parallel, shaken at 1000 rpm and 37° C. for 4 hours, and filtered, 1 mL of primary filtrate was discarded, then 400 μL of subsequent filtrate was taken, and tested by using a high performance liquid chromatograph (UV).

[3] = Stability in simulated gastric fluid (SGF); format: physicochemical; details: 37° C., 1000 rpm
Description: Simulated gastric fluid (SGF), Manufacturer: Dongguan Chuangfeng Automation Technology Co., Ltd.; Product model: CF-006.
Oscillating constant temperature metal bath, Model: Thermo; Manufacturer: Digital Skaking Drybath.
Temperature: 37° C.; rotating speed: 1000 rpm; sampling time: 0, 4 hours.
Chromatographic column: Welch Xtimate C18 3.0×100 mm, 5 μm. Mobile phase: A: 0.04% trifluoroacetic acid (TFA)/H2O (v/v), B: acetonitrile (ACN). Gradient elution was performed according to the following table, flow rate: 1.0 mL/min; injection volume: 5 μL; column temperature: 35° C.; wavelength: 254 nm.
• (a) preparation of 0.04% TFA/H2O: 400 μL of TFA was measured, placed into 1 L of H2O, and homogenously mixed; • (b) Sample stock solution: about 3 mg of test sample was weighed, and prepared into a stock solution of 10 mmol/L using DMSO; • (c) 50 μL of the sample stock solution was taken, placed into a 5 mL volumetric flask, made up to the scale with the addition of SGF, and homogenously mixed. 400 μL of the solution was taken, four samples in parallel, and shaken at 1000 rpm and 37° C.; • (d) every two samples were taken after 0 and 4 hours respectively, 400 μL of acetonitrile was added, and homogenously mixed, followed by liquid phase injection, and calculation of the change % of the main peak area in the solution after 4 hours relative to 0 hour, two average value reports being taken at each time point.

[4] = simulated intestinal fluid (FaSSIF), thermodynamic from solid

SMILES	Ki [1]	solubility thermodynamic at 4 h [2, 4]	Residual content in simulated gastric juice after 4 hours (compared with 0 hour content) [3]	solubility thermodynamic at 4 h ([2]; simulated intestinal fluid FaSSIF, pH 7.4, thermodynamic from solid)
Cc1onc(-c2ccc(F)cc2)c1COc1ccc(-c2nnc3n2CCS(=O)(=O)C3)cn1 [Compound 7, 3-(6-((3-(4-fluorophenyl)-5-methylisoxazol-4-yl)methoxy)pyridin-3-yl)-5,6-dihydro-8H-[1,2,4]triazolo[3,4-c][1,4]thiazine 7,7-dioxide]	2.14 nM	157 µg/mL (≈ 344 µM)		
Cc1onc(-c2ccc(F)cc2)c1COc1ccc(N2CCN3CCNC(=O)C3C2)nn1 (centres unmarked) [Compound 10, 8-(6-((3-(4-fluorophenyl)-5-methylisoxazol-4-yl)methoxy)pyridazin-3-yl) hexahydro-2H-pyrazino[1,2-a]pyrazin-1 (6H)-one]	3.2 nM	19.4 µg/mL (≈ 44.1 µM)		
Cc1onc(-c2ccc(F)cc2)c1COc1ccc(-c2nnc3n2CCOC3)cn1 [Compound 17, 3-(6-((3-(4-fluorophenyl)-5-methylisoxazol-4-yl)methoxy)pyridin-3-yl)-5,6-dihydro-8H-[1,2,4]triazolo[3,4-c][1,4]oxazine]	2.59 nM	33.1 µg/mL (≈ 81.2 µM)	65% (4 hours)	
Cc1onc(-c2ccc(F)cc2)c1COc1ccc(-c2nnc3n2CCOC3)nn1 [Compound 18, 3-(6-((3-(4-fluorophenyl)-5-methylisoxazol-4-yl)methoxy)pyridazin-3-yl)-5,6-dihydro-8H-[1,2,4]triazolo[3,4-c][1,4]oxazine]	0.32 nM		51% (4 hours)	
Cc1onc(-c2ccc(F)cc2)c1COc1cnc(-c2nnc3n2CCOC3)cn1 [Compound 19, 3-(5-((3-(4-fluorophenyl)-5-methylisoxazol-4-yl)methoxy)pyrazin-2-yl)-5,6-dihydro-8H-[1,2,4]triazolo[3,4-c][1,4]oxazine]	1.62 nM	15.2 µg/mL (≈ 37.3 µM)	94% (4 hours)	
Cc1onc(-c2ccc(F)cc2)c1COc1cnc(-c2nnc3n2CCC3)cn1 [Compound 23, 4-(((5-(6,7-dihydro-5H-pyrrolo[2,1-c][1,2,4]triazol-3-yl)pyrazin-2-yl)oxy)methyl)-3-(4-fluorophenyl)-5-methylisoxazole]	3.06 nM	39.6 µg/mL (≈ 101 µM)	80% (4 hours)	
Cc1onc(-c2ccc(F)cc2)c1COc1cnc(-c2nnc3n2CCCOC3)cn1 [Compound 24, 3-(5-((3-(4-fluorophenyl)-5-methylisoxazol-4-yl)methoxy)pyrazin-2-yl)-6,7-dihydro-5H,9H-[1,2,4]triazolo[3,4-c][1,4]oxazepane]	6.75 nM			18.3 µg/mL (≈ 43.3 µM)
Cc1onc(-c2ccc(F)cc2)c1COc1cnc(-c2nnc3n2CCOCC3)cn1 [Compound 33, 3-(5-((3-(4-fluorophenyl)-5-methylisoxazol-4-yl)methoxy)pyrazin-2-yl)-5,6,8,9-tetrahydro-[1,2,4]triazolo[4,3-d][1,4]oxazepane]	9.74 nM	39.5 µg/mL (≈ 93.5 µM)	91% (4 hours)	
Cc1onc(-c2ccc(F)cc2)c1COc1ccc(N2CCn3ccnc3C2=O)nn1 [Compound 37, 7-(6-((3-(4-fluorophenyl)-5-methylisoxazol-4-yl)methoxy)pyridazin-3-yl)-6,7-dihydroimidazo[1,2-a]pyrazin-8(5H)-one]	5.37 nM	60.2 µg/mL (≈ 143 µM)		
Cc1onc(-c2ccc(F)cc2)c1COc1ccc(-c2cc3n(c(=O)n2)C[C@]24CO[C@H](CN32)C4)cn1 [Compound 38]	2.24 nM		75% (4 hours)	
Cc1onc(-c2ccc(F)cc2)c1COc1ccc(-c2cc3n(c(=O)n2)CCN3C)cn1 [Compound 41, 7-(6-((3-(4-fluorophenyl)-5-methylisoxazol-4-yl)methoxy)pyridin-3-yl)-1-methyl-2,3-dihydroimidazo[1,2-c]pyrimidin-5(1H)-one]	0.99 nM		35% (4 hours)	
